The text below walks through data of patent US9029393B2, “Adenosine receptor ligands and uses thereof” (Kaldi Pharma, SAS, priority 2009, dated 2015).

Structures can show the parent of a compound that is named as a salt.

Data set [1] has as its target human A2A receptor (Homo sapiens, UniProt P29274). Briefly: A2A-antagonist Ca++ functional assay (CGS21680 at EC80). To be noted: HEK cells expressing GFP-hA2A and Gα15, inhibition of CGS21680 (EC80)-induced Ca2+ increase. It is filed as cell-based. The text has this: Assay protocol: HEK cells stably expressing the human A2A receptor fused at its amino terminal domain to GFP, and cultured in Modified Eagle's Medium supplemented with 10% FCS, were transiently transfected by electroporation with plasmid DNA encoding the promiscuous G protein Gα15 in order to deviate the natural coupling of the receptor from AMPc production to calcium (Ca^2+) release pathway (Brabet et al., Neuropharmacology 37:1043-1051, 1998). Receptor activity was detected by changes in intracellular Ca^2+, measured using the fluorescent Ca^2+ sensitive dye, Fluo4AM (Molecular Probes®).
Cells were plated after transfection onto polyornithine coated, clear bottom, black-walled, 96-well plates and cultured for 24 hours. The day of the test, cells were washed with freshly prepared buffer B (HBSS 1×, Hepes 20 mM, MgSO4.7H2O 1 mM, Na2CO3 3.3 mM, CaCl2-2H2O 1.3 mM, 0.5% BSA, Probenecid 2.5 mM) and loaded at 37° C. in 5% CO2 for 1.5 hours with buffer B containing 1 μM Fluo4AM and 0.1 mg/mL Pluronic Acid. Afterwards cells were washed twice with buffer B and 50 μL of this buffer were added to each well. The tested compounds were incubated […] before addition of CGS21680 (used as reference agonist) at a concentration leading to 80% of its maximal activity (EC80). Afterwards, the intracellular Ca^2+ measurements were performed on a 60s kinetic by detection of the fluorescence intensity (excitation 485 nm, emission 525 nm) using the fluorescence microplate reader FlexStation® (Molecular Devices®). All data reflect three independent experiments. Dose-response curves were fitted by using the sigmoidal dose-response (variable slope) analyze in GraphPad Prism® program (San Diego) and IC50 of antagonist compound was calculated. Dose-response experiments were all performed in triplicate, three times independently.

The target of data set [2] is hA2A receptor (Homo sapiens (Human), UniProt P29274). Kind of data set: A2A FRET-based binding assay. To be noted: HEK GFP-A2A stable cell line, dyed CGS15943-derived probe. How it is done: Assay protocol: Compounds were evaluated on an in-vitro binding assay developed based on the technology described in the patent WO 98/55873. This assay was developed from hA2A receptor that was fused at its amino terminal domain to Green Fluorescent Protein (GFP) and stably expressed in HEK cells. The probe used is a dyed ligand derived from the non-selective CGS15943. For the FRET-binding experiment, HEK GFP-A2A stable cell line was seeded onto poly-D-lysine precoated black-walled 96-well plates in normal growth media (0.7 10^5 cells per well). After 24 hours of culture at 37° C., the cell media was removed and cells were washed. The tested compounds were applied on cells by the FLIPR^TETRA® (Molecular Devices®) and incubated for 10 minutes prior to addition of the dyed probe. When a drug interacts with the receptor, the FRET signal measured by the variation of GFP fluorescence at 510 nm is disrupted. The time curves of ligand binding were recorded during 1000 seconds. (excitation Light Emitting Diode 470-495 nm, emission 510+/−10 nm). The percentage of inhibition allows the evaluation of the inhibitory activity of compounds in comparison to the antagonist A2A reference CGS15943. The dose-inhibition curves were fitted with variable slope, using GraphPad® Prism software, in order to determine […] and Ki values. The dose-inhibition experiments were all performed in duplicate, three times independently.

Data set [3] concerns haloperidol-induced catalepsy. Kind of data set: Haloperidol-induced catalepsy model in the mouse (bar test). It is filed as in vivo.

Sequence of hA2A receptor (P29274 whole entry, the tested form may be a part): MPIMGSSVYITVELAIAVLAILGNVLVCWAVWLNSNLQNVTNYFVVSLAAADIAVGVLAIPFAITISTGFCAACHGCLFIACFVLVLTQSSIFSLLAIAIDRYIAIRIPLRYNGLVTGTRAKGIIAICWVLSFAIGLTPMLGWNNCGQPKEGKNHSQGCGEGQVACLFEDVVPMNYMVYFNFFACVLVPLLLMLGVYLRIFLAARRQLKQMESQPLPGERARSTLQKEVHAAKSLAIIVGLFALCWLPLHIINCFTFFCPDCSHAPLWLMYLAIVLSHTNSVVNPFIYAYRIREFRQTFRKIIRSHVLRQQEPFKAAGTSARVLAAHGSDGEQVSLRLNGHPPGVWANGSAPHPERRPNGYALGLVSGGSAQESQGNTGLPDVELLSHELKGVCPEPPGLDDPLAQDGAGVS

Regarding `O=C(c1ccc(C(=O)N2CCCCCC2)cc1)c1cnc2ccc(F)cn12` [Example 14, [4-(Azepane-1-carbonyl)-phenyl]-(6-fluoro-imidazo[1,2-a]pyridin-3-yl)-methanone], the melting point fell in the range of 165 to 169 °C. Moreover, in data set [1], 0.195 ± 0.1 µM corresponded to half-maximal inhibition (IC50). The same molecule returned an inhibitory constant (Ki) in data set [2] of 0.012 ± 0.006 µM. For the same molecule, the anti-cataleptic effect entry in data set [3] (1 mg/kg i.p. 120 minutes after haloperidol, FIG. 1) was “no anticataleptic activity”. Further, in data set [3] (30 mg/kg i.p. 120 minutes after haloperidol, FIG. 1), the anti-cataleptic effect entry was “the most important catalepsy reversion”. In addition, in data set [3] (1, 3, 30 and 100 mg/kg i.p. 120 minutes after haloperidol (1 mg/kg i.p.), FIG. 1), the anti-cataleptic effect entry was “significant anti-cataleptic effect in a dose-dependent manner”. Besides, the anti-cataleptic effect entry in data set [3] (10 and 30 mg/kg per os 120 minutes after haloperidol, FIG. 2) is reported as “significant anti-cataleptic effect in a dose-dependent manner”.
`Nc1cc(C(=O)N2CCCCCC2)ccc1C(=O)c1cnc2ccc(F)cn12` [Example 30, [2-Amino-4-(azepane-1-carbonyl)-phenyl]-(6-fluoro-imidazo[1,2-a]pyridin-3-yl)-methanone] returned a melting point of 141 to 152 °C. Moreover, the IC50 in data set [1] was determined as 0.992 ± 0.011 µM. Further, the affinity in data set [2] corresponds to a Ki of 0.103 ± 0.052 µM.
For `O=C(c1ccc(C(=O)N2CCCc3ccccc32)cc1)c1cnc2ccccn12` [Example 71, [4-(3,4-Dihydro-2H-quinoline-1-carbonyl)-phenyl]-imidazo[1,2-a]pyridin-3-yl-methanone] the same measures were 169 to 175 °C, 1.83 ± 0.122 µM and 0.171 ± 0.07 µM.
With `Cn1nc(-c2cnc3ccc(F)cn23)c2ccc(C(=O)N3CCCCCCC3)cc21` [Example 97, Azocan-1-yl-[3-(6-fluoro-imidazo[1,2-a]pyridin-3-yl)-1-methyl-1H-indazol-6-yl]-methanone, chlorhydrate salt], the IC50 in data set [1] was 0.021 ± 0.008 µM. The same molecule gave an inhibition constant Ki in data set [2] of 0.003 ± 0.0004 µM.
The like results for `COC[C@H]1CCCN1C(=O)c1ccc2c(-c3cnc4ccc(C#N)cn34)nn(C)c2c1` [Example 101, 3-(1-Methyl-6-{[(2R)-2-(methoxymethyl)pyrrolidin-1-yl]carbonyl}-1H-indazol-3-yl)imidazo[1,2-a]pyridine-6-carbonitrile, chlorhydrate salt] were, in that order, 0.012 ± 0.004 µM and 0.003 µM.
On to `O=C(c1ccc2c(-c3cnc4ccc(F)cn34)noc2c1)N1CCCCCC1` [Example 113, Azepan-1-yl-[3-(6-fluoro-imidazo[1,2-a]pyridin-3-yl)-benzo[d]isoxazol-6-yl]-methanone], for which the melting point was 218 to 219 °C. In addition, in data set [1], inhibition was half-maximal at 0.046 ± 0.003 µM (IC50). Further, the Ki in data set [2] was 0.004 ± 0.001 µM.
On to `O=C(c1ccc2c(c1)nnn2-c1cnc2ccc(F)cn12)N1CCCCCC1` [Example 132, 5-(Azepan-1-ylcarbonyl)-1-(6-fluoroimidazo[1,2-a]pyridin-3-yl)-1H-1,2,3-benzotriazole], for which the melting point was in the range of 160 to 166 °C. In addition, half-maximal inhibition in data set [1] (IC50) was put at 0.326 ± 0.047 µM. This molecule came in with a Ki in data set [2] of 0.072 ± 0.01 µM.

For orientation: IC50 means the midpoint of a concentration-inhibition curve. Low values mean greater potency in that assay, high ones weaker potency in that assay. The term Ki denotes a measure of affinity in units of concentration, obtained from inhibition or displacement. The low end stands for higher affinity, the high end for lower affinity. As a reminder, the melting point is the temperature of the solid-liquid transition.
